# Counter-ions that a name gives are not always drawn. Like-named read-outs stand apart in the source and are kept apart here.
# Experiments:
# [1] = Solubility; format: physicochemical
# [2] = Acidity or basicity; format: physicochemical
# [3] = system: Acinetobacter calcoaceticus IFO 12552; format: cell-based; settings: IFO12552, agar dilution, DY medium, pH unadjusted, approx. 10^6 CFU/ml, read-out: Minimum Inhibitory Conc. (MIC)
# Procedure: (§1) (Note 1) Measurement was conducted by employing a medium consisting of DY
# (§2) medium [Bacto Antibiotic Medium 3 (Difco Laboratories, USA)(17.5 g), Bact
# (§3) yeast extract(Difco Laboratories, USA)(5.0 g) and distilled water(pH
# (§4) unadjusted)(1000 ml)], using approximately 10^6 colony forming unit/m
# (§5) of inoculum, by means of the agar dilution method.
# [4] = system: Aeromonas caviae NCW; format: cell-based; settings: agar dilution, DY medium, pH unadjusted, approx. 10^6 CFU/ml, read-out: Minimum Inhibitory Conc. (MIC)
# Procedure: as §1, §2, §3, §4, §5
# [5] = system: Bacillus cereus FDA 5; format: cell-based; settings: FDA5, agar dilution, DY medium, pH unadjusted, approx. 10^6 CFU/ml, read-out: Minimum Inhibitory Conc. (MIC)
# Procedure: as §1, §2, §3, §4, §5
# [6] = system: Bacillus megaterium IFO 12108; format: cell-based; settings: Priestia megaterium, IFO12108; agar dilution; DY medium, pH unadjusted; approx. 10^6 CFU/ml; read-out: Minimum Inhibitory Conc. (MIC)
# Procedure: as §1, §2, §3, §4, §5
# [7] = system: Bacillus subtilis NIHJ PCI 219; format: cell-based; settings: agar dilution, DY medium, pH unadjusted, approx. 10^6 CFU/ml, read-out: Minimum Inhibitory Conc. (MIC)
# Procedure: as §1, §2, §3, §4, §5
# [8] = system: Escherichia coli LD-2; format: cell-based; settings: LD2, agar dilution, DY medium, pH unadjusted, approx. 10^6 CFU/ml, read-out: Minimum Inhibitory Conc. (MIC)
# Procedure: as §1, §2, §3, §4, §5
# [9] = system: Escherichia coli NIHJ JC 2; format: cell-based; settings: NIHJJC2, agar dilution, DY medium, pH unadjusted, approx. 10^6 CFU/ml, read-out: Minimum Inhibitory Conc. (MIC)
# Procedure: as §1, §2, §3, §4, §5
# [10] = system: Klebsiella pnemoniae IFO 3317; format: cell-based; settings: IFO3317, agar dilution, DY medium, pH unadjusted, approx. 10^6 CFU/ml, read-out: Minimum Inhibitory Conc. (MIC)
# Procedure: as §1, §2, §3, §4, §5
# [11] = system: Micrococcus luteus IFO 12708; format: cell-based; settings: IFO12708, agar dilution, DY medium, pH unadjusted, approx. 10^6 CFU/ml, read-out: Minimum Inhibitory Conc. (MIC)
# Procedure: as §1, §2, §3, §4, §5
# [12] = system: Proteus vulgaris IFO 3988; format: cell-based; settings: IFO3988, agar dilution, DY medium, pH unadjusted, approx. 10^6 CFU/ml, read-out: Minimum Inhibitory Conc. (MIC)
# Procedure: as §1, §2, §3, §4, §5
# [13] = system: Pseudomonas aeruginosa IFO 3080; format: cell-based; settings: IFO3080, agar dilution, DY medium, pH unadjusted, approx. 10^6 CFU/ml, read-out: Minimum Inhibitory Conc. (MIC)
# Procedure: as §1, §2, §3, §4, §5
# [14] = system: Salmonella typhimurium IFO 12529; format: cell-based; settings: Salmonella enterica; agar dilution; DY medium, pH unadjusted; approx. 10^6 CFU/ml; read-out: Minimum Inhibitory Conc. (MIC)
# Procedure: as §1, §2, §3, §4, §5
# [15] = system: Staphylococcus aureus FDA 209P; format: cell-based; settings: FDA209P, agar dilution, DY medium, pH unadjusted, approx. 10^6 CFU/ml, read-out: Minimum Inhibitory Conc. (MIC)
# Procedure: as §1, §2, §3, §4, §5
# [16] = system: Staphylococcus epidermidis IFO 3762; format: cell-based; settings: IFO3762, agar dilution, DY medium, pH unadjusted, approx. 10^6 CFU/ml, read-out: Minimum Inhibitory Conc. (MIC)
# Procedure: as §1, §2, §3, §4, §5
# [17] = system: Streptococcus faecalis IFO 3989; format: cell-based; settings: Enterococcus faecalis, IFO3989; agar dilution; DY medium, pH unadjusted; approx. 10^6 CFU/ml; read-out: Minimum Inhibitory Conc. (MIC)
# Procedure: as §1, §2, §3, §4, §5
# [18] = Conversion in aqueous solution; format: physicochemical; settings: room temperature
# Description: For example, in case that the mixture of TAN-1057A and B is isolated as crystals of the sulfate, the ratio of TAN-1057A and B is about 6 to 8:4 to 2.
# The term "Antibiotics TAN-1057" in the present specification includes also a mixture which contains TAN-1057A, B, C and D in an optional combination and an optional ratio thereof.
# [19] = system: Staphylococcus aureus C10; experiment: Antibacterial activity against clinically isolated S. aureus (agar dilution MIC, Table 2); format: cell-based; settings: strain C10; agar dilution; Mueller Hinton medium; 10^6 CFU/ml
# Procedure: (§6) DMPPC: Methicillin, KM: Kanamycin, GM: Gentamycin, EM: Erythromycin (Note
# (§7) Determined by the agar dilution method. Medium: Mueller Hinton medium
# (§8) (Difco, USA) Inoculum Size: 10^6 CFU/ml, 37° C.
# [20] = system: Staphylococcus aureus C3; experiment: as above; format: cell-based; settings: strain C3; agar dilution; Mueller Hinton medium; 10^6 CFU/ml
# Procedure: as §6, §7, §8
# [21] = system: Staphylococcus aureus C4; experiment: as above; format: cell-based; settings: strain C4; agar dilution; Mueller Hinton medium; 10^6 CFU/ml
# Procedure: as §6, §7, §8
# [22] = system: Staphylococcus aureus C7; experiment: as above; format: cell-based; settings: strain C7; agar dilution; Mueller Hinton medium; 10^6 CFU/ml
# Procedure: as §6, §7, §8
# [23] = system: Staphylococcus aureus FDA 209P; experiment: as above; format: cell-based; settings: strain FDA 209P; agar dilution; Mueller Hinton medium; 10^6 CFU/ml
# Procedure: as §6, §7, §8
# [24] = system: Staphylococcus aureus N121; experiment: as above; format: cell-based; settings: strain N121; agar dilution; Mueller Hinton medium; 10^6 CFU/ml
# Procedure: as §6, §7, §8
# [25] = system: Staphylococcus aureus N129; experiment: as above; format: cell-based; settings: strain N129; agar dilution; Mueller Hinton medium; 10^6 CFU/ml
# Procedure: as §6, §7, §8
# [26] = system: Staphylococcus aureus N176-3; experiment: as above; format: cell-based; settings: strain N176-3; agar dilution; Mueller Hinton medium; 10^6 CFU/ml
# Procedure: as §6, §7, §8
# [27] = system: Staphylococcus aureus N176-6; experiment: as above; format: cell-based; settings: strain N176-6; agar dilution; Mueller Hinton medium; 10^6 CFU/ml
# Procedure: as §6, §7, §8
# [28] = system: Staphylococcus aureus N176; experiment: as above; format: cell-based; settings: strain N176; agar dilution; Mueller Hinton medium; 10^6 CFU/ml
# Procedure: as §6, §7, §8
# [29] = system: Staphylococcus aureus N235; experiment: as above; format: cell-based; settings: strain N235; agar dilution; Mueller Hinton medium; 10^6 CFU/ml
# Procedure: as §6, §7, §8
# [30] = system: Staphylococcus aureus N237; experiment: as above; format: cell-based; settings: strain N237; agar dilution; Mueller Hinton medium; 10^6 CFU/ml
# Procedure: as §6, §7, §8
# [31] = system: Staphylococcus aureus N247-16; experiment: as above; format: cell-based; settings: strain N247-16; agar dilution; Mueller Hinton medium; 10^6 CFU/ml
# Procedure: as §6, §7, §8
# [32] = system: Staphylococcus aureus N247-21; experiment: as above; format: cell-based; settings: strain N247-21; agar dilution; Mueller Hinton medium; 10^6 CFU/ml
# Procedure: as §6, §7, §8
# [33] = system: Staphylococcus aureus N247; experiment: as above; format: cell-based; settings: strain N247; agar dilution; Mueller Hinton medium; 10^6 CFU/ml
# Procedure: as §6, §7, §8
# [34] = system: Staphylococcus aureus N262; experiment: as above; format: cell-based; settings: strain N262; agar dilution; Mueller Hinton medium; 10^6 CFU/ml
# Procedure: as §6, §7, §8
# [35] = system: Staphylococcus aureus N267; experiment: as above; format: cell-based; settings: strain N267; agar dilution; Mueller Hinton medium; 10^6 CFU/ml
# Procedure: as §6, §7, §8
# [36] = system: Staphylococcus aureus N28; experiment: as above; format: cell-based; settings: strain N28; agar dilution; Mueller Hinton medium; 10^6 CFU/ml
# Procedure: as §6, §7, §8
# [37] = system: Staphylococcus aureus N326; experiment: as above; format: cell-based; settings: strain N326; agar dilution; Mueller Hinton medium; 10^6 CFU/ml
# Procedure: as §6, §7, §8
# [38] = system: Staphylococcus aureus N51; experiment: as above; format: cell-based; settings: strain N51; agar dilution; Mueller Hinton medium; 10^6 CFU/ml
# Procedure: as §6, §7, §8
# [39] = system: Staphylococcus aureus N62; experiment: as above; format: cell-based; settings: strain N62; agar dilution; Mueller Hinton medium; 10^6 CFU/ml
# Procedure: as §6, §7, §8
# [40] = system: Staphylococcus aureus N64; experiment: as above; format: cell-based; settings: strain N64; agar dilution; Mueller Hinton medium; 10^6 CFU/ml
# Procedure: as §6, §7, §8
# [41] = system: Staphylococcus aureus N83; experiment: as above; format: cell-based; settings: strain N83; agar dilution; Mueller Hinton medium; 10^6 CFU/ml
# Procedure: as §6, §7, §8
# [42] = system: Staphylococcus aureus N8; experiment: as above; format: cell-based; settings: strain N8; agar dilution; Mueller Hinton medium; 10^6 CFU/ml
# Procedure: as §6, §7, §8
# [43] = system: Staphylococcus aureus N91; experiment: as above; format: cell-based; settings: strain N91; agar dilution; Mueller Hinton medium; 10^6 CFU/ml
# Procedure: as §6, §7, §8
# [44] = system: Staphylococcus aureus TS-65; experiment: as above; format: cell-based; settings: strain TS-65; agar dilution; Mueller Hinton medium; 10^6 CFU/ml
# Procedure: as §6, §7, §8
# [45] = system: Staphylococcus aureus TST-75; experiment: as above; format: cell-based; settings: strain TST-75; agar dilution; Mueller Hinton medium; 10^6 CFU/ml
# Procedure: as §6, §7, §8
compound,measurement,setting,value
CN(C(=O)C[C@@H](N)CCCNC(=N)N)[C@H]1CNC(NC(N)=O)=NC1=O [TAN-1057A trihydrochloride],Solubility,[1]; acetone,Sparingly soluble
same,Solubility,[1]; diethyl ether,Sparingly soluble
same,Solubility,[1]; dimethylsulfoxide,Soluble
same,Solubility,[1]; ethyl acetate,Sparingly soluble
same,Solubility,[1]; methanol,Soluble
same,Solubility,[1]; water,Readily soluble
same,Acidity or basicity,[2],neutral
CN(C(=O)C[C@@H](N)CCCNC(=N)N)[C@@H]1CNC(NC(N)=O)=NC1=O [TAN-1057B dihydrochloride],Solubility,[1]; acetone,Sparingly soluble
same,Solubility,[1]; diethyl ether,Sparingly soluble
same,Solubility,[1]; dimethylsulfoxide,Soluble
same,Solubility,[1]; ethyl acetate,Sparingly soluble
same,Solubility,[1]; methanol,Soluble
same,Solubility,[1]; water,Readily soluble
same,Acidity or basicity,[2],neutral
CN(C(=O)C[C@@H](N)CCCNC(=N)N)[C@@H]1CNC(NC(N)=O)=NC1=O [TAN-1057B],MIC,[3],100 µg/mL
same,MIC,[4],25 µg/mL
same,MIC,[5],100 µg/mL
same,MIC,[6],50 µg/mL
same,MIC,[7],50 µg/mL
same,MIC,[8],25 µg/mL
same,MIC,[9],> 100 µg/mL
same,MIC,[10],> 100 µg/mL
same,MIC,[11],12.5 µg/mL
same,MIC,[12],> 100 µg/mL
same,MIC,[13],> 100 µg/mL
same,MIC,[14],> 100 µg/mL
same,MIC,[15],25 µg/mL
same,MIC,[16],3.13 µg/mL
same,MIC,[17],50 µg/mL
same,conversion of TAN-1057A and B into each other,[18],converted easily each other
CN1C(=O)C[C@H](CCCNC(=N)N)NC(=O)[C@H]1CNC(=N)NC(N)=O [TAN-1057C dihydrochloride],Solubility,[1]; acetone,Sparingly soluble
same,Solubility,[1]; diethyl ether,Sparingly soluble
same,Solubility,[1]; dimethylsulfoxide,Soluble
same,Solubility,[1]; ethyl acetate,Sparingly soluble
same,Solubility,[1]; methanol,Soluble
same,Solubility,[1]; water,Readily soluble
same,Acidity or basicity,[2],neutral
CN1C(=O)C[C@H](CCCNC(=N)N)NC(=O)[C@@H]1CNC(=N)NC(N)=O [TAN-1057D dihydrochloride],Solubility,[1]; acetone,Sparingly soluble
same,Solubility,[1]; diethyl ether,Sparingly soluble
same,Solubility,[1]; dimethylsulfoxide,Soluble
same,Solubility,[1]; ethyl acetate,Sparingly soluble
same,Solubility,[1]; methanol,Soluble
same,Solubility,[1]; water,Readily soluble
same,Acidity or basicity,[2],neutral
Gentamycin [GM],MIC,[19],> 100 µg/mL
same,MIC,[20],100 µg/mL
same,MIC,[21],50 µg/mL
same,MIC,[22],> 100 µg/mL
same,MIC,[23],≤ 0.20 µg/mL
same,MIC,[24],> 100 µg/mL
same,MIC,[25],50 µg/mL
same,MIC,[26],0.39 µg/mL
same,MIC,[27],0.39 µg/mL
same,MIC,[28],0.39 µg/mL
same,MIC,[29],> 100 µg/mL
same,MIC,[30],> 100 µg/mL
same,MIC,[31],100 µg/mL
same,MIC,[32],50 µg/mL
same,MIC,[33],50 µg/mL
same,MIC,[34],50 µg/mL
same,MIC,[35],100 µg/mL
same,MIC,[36],0.39 µg/mL
same,MIC,[37],> 100 µg/mL
same,MIC,[38],0.39 µg/mL
same,MIC,[39],3.13 µg/mL
same,MIC,[40],0.78 µg/mL
same,MIC,[41],≤ 0.20 µg/mL
same,MIC,[42],≤ 0.20 µg/mL
same,MIC,[43],0.39 µg/mL
same,MIC,[44],100 µg/mL
same,MIC,[45],> 100 µg/mL
